The record followed here is article PMC10434272, “Overexpression of Eimeria tenella Rhoptry Kinase 2 Induces Early Production of Schizonts” (Microbiology Spectrum, 2023).

The target of assay [1] is T1, EtROP2 (rhoptry kinase 2) (Eimeria tenella, UniProt U6KH66). Nature of the assay: ADP-Glo kinase assay with p120-TLTR peptide substrate, […] ATP. It is filed as biochemical. On the set-up: gene ETH_00027700; EtROP2-GST, wild type, full-length, from Met1 to Glu671, produced in Sf9 cells. Background: In ADP-Glo the light output rises with the ADP produced.
T1 sequence (U6KH66 entry or part of it): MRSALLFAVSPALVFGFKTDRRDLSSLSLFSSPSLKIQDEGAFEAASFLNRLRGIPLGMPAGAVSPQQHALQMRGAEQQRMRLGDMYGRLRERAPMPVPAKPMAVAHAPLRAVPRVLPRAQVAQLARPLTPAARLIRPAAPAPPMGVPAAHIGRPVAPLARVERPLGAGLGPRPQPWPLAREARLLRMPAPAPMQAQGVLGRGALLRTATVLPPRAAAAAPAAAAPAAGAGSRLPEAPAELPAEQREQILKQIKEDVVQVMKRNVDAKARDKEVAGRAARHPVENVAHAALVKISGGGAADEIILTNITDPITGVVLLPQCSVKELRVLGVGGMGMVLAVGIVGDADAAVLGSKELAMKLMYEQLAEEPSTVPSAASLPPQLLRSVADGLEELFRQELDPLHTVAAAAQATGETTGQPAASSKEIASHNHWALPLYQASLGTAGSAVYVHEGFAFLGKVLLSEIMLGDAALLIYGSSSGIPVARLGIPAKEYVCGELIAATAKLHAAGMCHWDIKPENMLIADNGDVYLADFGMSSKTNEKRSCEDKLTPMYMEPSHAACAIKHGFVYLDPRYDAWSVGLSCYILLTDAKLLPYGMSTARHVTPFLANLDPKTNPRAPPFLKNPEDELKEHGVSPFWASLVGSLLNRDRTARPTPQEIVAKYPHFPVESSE
Assay [2] has as its target T1, EtROP2 (rhoptry kinase 2). On the set-up: gene ETH_00027700.

Each structure is given as a SMILES string.

Take `CN[C@@H]1C[C@H]2O[C@@](C)([C@@H]1OC)n1c3ccccc3c3c4c(c5c6ccccc6n2c5c31)C(=O)NC4` [STS, staurosporine]: in assay [1], the half-maximal inhibitory concentration (IC50) (commonly the concentration needed to halve the response being measured) was 291 nM.
Turning to `Nc1ncnc2c1ncn2[C@@H]1O[C@H](COP(=O)(O)OP(=O)(O)OP(=O)(O)O)[C@@H](O)[C@H]1O` [ATP], the Michaelis-Menten constant (Km) (as a rule, the substrate concentration at which the rate is half of its maximum) in assay [2] is around 7.52 µM.
